These results are taken from US12344610B2, “APOL1 inhibitors and methods of use” (Maze Therapeutics, Inc., priority 2022, dated 2025).

In assay [1] the test system is HEK293 clonal cell line overexpressing APOL1 G1. The experiment in a line: APOL1 G1 HEK293 cell rescue assay (Example B3). Format: cell-based. The following applies: Homo sapiens, HEK293, HEK293 clonal line overexpressing APOL1 G1; geometric mean of at least 2 runs; † = single run; ¥ = concentration at 50% rescue estimated (no sigmoidal curve). The essentials: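 Rescue of cell death caused by APOL1 G1 overexpression was measured in a clonal HEK293 line. Compounds were tested in duplicate on one plate, and EC50s were geometric means across at least two runs on different days. Some values are estimated 50%-rescue concentrations where curve fitting failed.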

For assay [2], the system named is Trypanosoma brucei Lister 427 VSG221 with APOL1 G1 recombinant protein. The experiment in a line: APOL1 G1 trypanosome cell rescue assay (Example B5). It is filed as cell-based. The following applies: Trypanosoma brucei, 20 h, read-out: APOL1 G1 Trypanosome Rescue EC50, Trypanosoma brucei Lister 427 VSG221 with APOL1 G1 recombinant protein, 20 hours, CellTiter-Glo; geometric mean of at least 2 assay runs; † = single assay run. The essentials: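 Viability read by CellTiter-Glo luminescence after 20 h co-incubation (37° C, 5% CO2) of 250 trypanosomes/well in modified HMI-9 with test compound (duplicate 11-point, 2-fold dilutions, 0.4% DMSO) and APOL1 protein, […]. Protein: mature residues 28-398, E. coli inclusion-body refolded, tag cleaved, in DDM.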
For orientation: ATP-based viability assays read luminescence as a measure of living cells.

For orientation: EC50 means the concentration giving half of the maximal effect. In the case of `C[C@]1(O)C[C@@H](n2cc3cc(OCCN4CCC5(CC4)C(=O)Nc4ccc(Cl)cc45)cc(C(F)(F)F)c3n2)C1` [Compound 427, 5-chloro-1′-[2-({2-[(cis)-3-hydroxy-3-methylcyclobutyl]-7-(trifluoromethyl)-2H-indazol-5-yl}oxy)ethyl]-1,2-dihydrospiro[indole-3,4′-piperidin]-2-one], the half-maximal effective concentration (EC50) in assay [1] is 35.8 nM; in assay [2], 18.1 nM.
As to `C[C@]1(O)C[C@@H](n2cc3cc(OCCN4CCC5(CC4)C(=O)Nc4ccc(C#N)cc45)cc(C(F)(F)F)c3n2)C1` [Compound 428, 2-oxo-1′-[2-({2-[(cis)-3-hydroxy-3-methylcyclobutyl]-7-(trifluoromethyl)-2H-indazol-5-yl}oxy)ethyl]-1,2-dihydrospiro[indole-3,4′-piperidine]-5-carbonitrile], the EC50 in assay [1] was 89.6 nM; in assay [2], 71.9 nM.
Take `C[C@]1(O)C[C@@H](n2nnc3cc(OCCN4CCC5(CC4)C(=O)Nc4ccc(C#N)cc45)cc(C(F)(F)F)c32)C1` [Compound 435, 2-oxo-1′-[2-({1-[(cis)-3-hydroxy-3-methylcyclobutyl]-7-(trifluoromethyl)-1H-1,2,3-benzotriazol-5-yl}oxy)ethyl]-1,2-dihydrospiro[indole-3,4′-piperidine]-5-carbonitrile]: the figures for the EC50 in assay [1] and in assay [2] were 38.4 nM and 27.2 nM, respectively.
Taken in the same sequence, the figures for `C[C@]1(O)C[C@@H](n2cnc3cc(OCCN4CCC5(CC4)C(=O)Nc4ccc(Cl)cc45)cc(C#N)c32)C1` [Compound 439, 5-(2-{5-chloro-2-oxo-1,2-dihydrospiro[indole-3,4′-piperidin]-1′-yl}ethoxy)-1-[(cis)-3-hydroxy-3-methylcyclobutyl]-1H-1,3-benzodiazole-7-carbonitrile] were 45.5 nM and 51 nM.
Taken in the same sequence, the figures for `C[C@]1(O)C[C@@H](n2nnc3cc(OCCN4CCC5(CC4)C(=O)Nc4ccc(Cl)cc45)cnc32)C1` [Compound 440, 5-chloro-1′-[2-({3-[(cis)-3-hydroxy-3-methylcyclobutyl]-3H-[1,2,3]triazolo[4,5-b]pyridin-6-yl}oxy)ethyl]-1,2-dihydrospiro[indole-3,4′-piperidin]-2-one] were 139 nM and 205 nM.
Taken in the same sequence, the figures for `CC1(O)CC2(CN(c3ncc(OCCN4CCC5(CC4)C(=O)Nc4ccc(Cl)cc45)cn3)C2)C1` [Compound 459, 5-chloro-1′-{2-[(2-{6-hydroxy-6-methyl-2-azaspiro[3.3]heptan-2-yl}pyrimidin-5-yl)oxy]ethyl}-1,2-dihydrospiro[indole-3,4′-piperidin]-2-one] were 95.5 nM and 133 nM.
In the case of `C[C@]1(O)C[C@@H](N2C(=O)C3(CC3)c3cc(OCCN4CCC5(CC4)C(=O)Nc4ccc(Cl)cc45)cnc32)C1` [Compound 460, 5-chloro-1′-(2-{2′-oxo-1′-[(cis)-3-hydroxy-3-methylcyclobutyl]-1′,2′-dihydrospiro[cyclopropane-1,3′-pyrrolo[2,3-b]pyridin]-5′-yloxy}ethyl)-1,2-dihydrospiro[indole-3,4′-piperidin]-2-one], the EC50 in assay [1] was 97.7 nM; in assay [2], 118 nM.
Taken in the same sequence, the figures for `[2H]C([2H])([2H])[C@]1(O)C[C@@H](N2C(=O)CCc3cc(OCCN4CCC5(CC4)C(=O)Nc4ccc(Cl)cc45)cnc32)C1` [Compound 461, 5-chloro-1′-[2-({7-oxo-8-[(cis)-3-hydroxy-3-(^2H3)methylcyclobutyl]-5,6,7,8-tetrahydro-1,8-naphthyridin-3-yl}oxy)ethyl]-1,2-dihydrospiro[indole-3,4′-piperidin]-2-one] were 80.9 nM and 75.5 nM.
Taken in the same sequence, the figures for `C[C@]1(O)C[C@@H](n2c(=O)[nH]c3cc(OCCN4CCC5(CC4)C(=O)Nc4ccc(Cl)cc45)cc(C(F)(F)F)c32)C1` [Compound 468, 5-chloro-1′-[2-({2-oxo-1-[(cis)-3-hydroxy-3-methylcyclobutyl]-7-(trifluoromethyl)-2,3-dihydro-1H-1,3-benzodiazol-5-yl}oxy)ethyl]-1,2-dihydrospiro[indole-3,4′-piperidin]-2-one] were 14.5 nM and 5.59 nM.
Taken in the same sequence, the figures for `C[C@]1(O)C[C@@H](n2c(=O)[nH]c3cc(OCCN4CCC5(CC4)C(=O)Nc4ccc(C#N)cc45)cc(C(F)(F)F)c32)C1` [Compound 470, 2-oxo-1′-[2-({2-oxo-1-[(cis)-3-hydroxy-3-methylcyclobutyl]-7-(trifluoromethyl)-2,3-dihydro-1H-1,3-benzodiazol-5-yl}oxy)ethyl]-1,2-dihydrospiro[indole-3,4′-piperidine]-5-carbonitrile] were 47.6 nM and 12.4 nM.
